Assay [1] deals with cytosolic LPC. Put plainly: Cytosolic LPC concentration in HepG2 cells. The note with it: Homo sapiens, HepG2, 0.5 h; 30 min treatment (Fig. 7); read-out: suppression of cytosolic LPC (IC50). It counts as cell-based, human.
Description: LPC concentration in cytosolic supernatants was measured as previously described (Kishimoto T et al. Clin. Biochem. 2002; 35: 411-416).
Assay [2] relates to HepG2 cells. Put plainly: Fatty acid ([3H]oleate:albumin) influx in HepG2 cells. The assay is classed as cell-based, human.
The target in assay [3] is T1, organic anion-transporting polypeptide 1 in HepG2 cells (Homo sapiens, UniProt P46721).
T1 construct: host or cells: HepG2 (endogenous)
T1 sequence (P46721 1-670): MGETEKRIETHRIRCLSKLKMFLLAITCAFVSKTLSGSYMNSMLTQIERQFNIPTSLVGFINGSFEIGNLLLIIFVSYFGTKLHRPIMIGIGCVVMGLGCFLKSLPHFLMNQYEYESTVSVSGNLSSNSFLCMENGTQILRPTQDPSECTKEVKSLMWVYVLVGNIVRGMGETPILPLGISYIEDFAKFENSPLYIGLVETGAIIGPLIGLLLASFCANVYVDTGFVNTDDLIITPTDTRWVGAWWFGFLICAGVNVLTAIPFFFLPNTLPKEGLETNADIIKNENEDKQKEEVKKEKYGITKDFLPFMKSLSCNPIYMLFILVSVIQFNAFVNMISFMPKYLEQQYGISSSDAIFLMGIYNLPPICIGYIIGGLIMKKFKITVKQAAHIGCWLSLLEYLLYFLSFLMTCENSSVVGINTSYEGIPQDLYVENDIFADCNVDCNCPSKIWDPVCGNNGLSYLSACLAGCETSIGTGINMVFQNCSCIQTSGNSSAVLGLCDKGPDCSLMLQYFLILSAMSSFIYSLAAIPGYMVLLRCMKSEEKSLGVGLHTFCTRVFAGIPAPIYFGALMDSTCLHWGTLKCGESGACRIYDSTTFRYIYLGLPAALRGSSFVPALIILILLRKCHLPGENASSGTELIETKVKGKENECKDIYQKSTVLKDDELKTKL
The note with it: uptake by HepG2 cells; Chamulitrat et al. 2009; read-out: half-maximal inhibitory concentration (IC50) for competition with UDCA-LPE uptake; cited from earlier work.

Assay [4] relates to DRM-PM proteins iPLA2ß, CD36, FABPPM, caveolin1. Put plainly: DRM-PM protein levels in HepG2 cells by semi-quantitative densitometry. It counts as cell-based, human. The note with it: bafilomycin 50 nM, 16 h.
The test system of assay [5] is transcripts of all complex subunits. Put plainly: In vitro transcription in native HepG2 nuclear extracts exposed to LPC-conditioned delipidated cytosol. It counts as biochemical, human. The settings on record: delipidated cytosol incubated with LPC 1 h.
The subject of assay [6] is HepG2 cells. Put plainly: [3H]glucose influx in HepG2 cells. The assay is classed as cell-based, human. The note with it: at 10 mM glucose; MßCD.

Peptide text beside a SMILES is read from it. * marks the point of attachment. Cbz = O=C(OCc1ccccc1)*

Consider `O=C1O/C(=C/Br)CCC1c1cccc2ccccc12` (stereo not shown) [BEL, bromoenol lactone, reference compound], for which the IC50 in assay [1] was 43 µM; in assay [2] (Homo sapiens, HepG2, 1-h treatment with increasing concentrations (Fig. 2A), read-out: inhibition of fatty acid influx (IC50)) it was 52 µM.
As to `CC(C)C[C@@H](C=O)NC(=O)[C@H](CC(C)C)NC(=O)[C@H](CC(C)C)NC(=O)OCc1ccccc1` [MG132, reference compound] (Cbz-Leu-Leu-Leu-aldehyde), the “effect on fatty acid uptake” value in assay [2] is “no effect on uptake”.
Regarding `O=C([O-])[C@H](O)[C@@H](O)[C@H](O)[C@H](O)CO.[Na+]` [Na-gluconate, reference compound], the “passive translocation component of fatty acid influx” value in assay [2] is “inhibited to negligible levels”.
In the case of `C[C@H](CCC(=O)O)[C@H]1CC[C@H]2[C@@H]3[C@@H](O)C[C@@H]4C[C@H](O)CC[C@]4(C)[C@H]3CC[C@]12C` [UDCA, ursodeoxycholic acid], the IC50 in assay [3] is 20 µM.
In the case of `CO/C1=C\C(C)=C\[C@@H](C)[C@@H](O)[C@@H](C)C/C(C)=C/C=C/[C@H](OC)[C@@H]([C@@H](C)[C@@H](O)[C@H](C)[C@@]2(O)C[C@@H](O)[C@H](C)[C@@H](C(C)C)O2)OC1=O` [bafilomycin], in assay [4], the “increase in DRM-PM CD36” value worked out at 40.85 ± 10.56%, the “increase in DRM-PM FABPPM” value was found to be 25.99 ± 3.35%, the “increase in DRM-PM caveolin1” value amounted to 60.76 ± 7.03% and the “increase in DRM-PM iPLA2ß” value was 51.56 ± 9.85%. For the same molecule, the fatty acid influx in assay [2] (bafilomycin 50 nM, 16 h, untreated 26.95 ± 2.4) amounted to 33.33 ± 5.1 nmol/mg protein/min.
In the case of lysophosphatidylcholine [LPC], the “LPC concentration at which the transcripts of all complex subunits were downregulated” value in assay [5] turned out to be 5 µmol/mg protein.
For “methyl-beta-cyclodextrin [MßCD, reference compound]”, the “influx of [3H]glucose” value in assay [6] stood at 135.70 ± 14.7 nmol/mg protein/min. In addition, in assay [2], the “additional reduction of fatty acid influx” value is given as 60%.
